Experimental data reported in the RepoRT retention time repository.

Test: Waters SunFire C18, 150 × 2.1 mm, 3.5 µm, 25 °C, 0.25 mL/min, estimated dead time 1.3 min; A: water + 0.1% formic acid; B: methanol; gradient (min/%B) 0/5 30/100
Settings: stereoisomer not certain

Row | SMILES | LC retention time
1 | OC1OCC=C2CN3CCC45c6ccccc6NC4C1C2CC35 (stereo not given) | 9.62 min
2 | CC=C1CNC2Cc3c([nH]c4ccccc34)C(=O)CC1C2C(=O)OC (stereo not given) | 13.4 min
3 | CC=C1C[N+]2(C)C3CC1C(C(=O)[O-])C2Cc1c3[nH]c2ccccc12 (stereo not given) | 15.6 min
4 | COc1ccc2c(c1)N1C(=O)CC3OCC=C4CN5CCC26C5CC4C3C16 (stereo not given) | 16.8 min
5 | CC=C1CN2C3CC1C1(C(=O)OC)C2CC2(c4cc(O)ccc4N(C)C32)C1OC(=O)c1cc(OC)c(OC)c(OC)c1 (stereo not given) | 15.8 min
6 | O=c1c2cncc3c2c(c2n1CCc1c-2[nH]c2ccccc12)C=C3 | 22.1 min
7 | C=CC1CN2CCC1CC2C(O)c1ccnc2ccc(OC)cc12 (stereo not given) | 13.7 min
8 | COC(=O)C1CC23CCCN4CCC5(c6cc(Cc7ccc8c(c7)C79CCN%10CCCC%11(CCC7(N8)C(C(=O)O)C%11)C%109)ccc6N(C)C15CC2)C43 (stereo not given) | 18 min
9 | CCC1CN2CCC3(C(=O)Nc4ccccc43)C2CC1C(=COC)C(=O)OC (stereo not given) | 16.4 min
10 | O=C1CC2OCC=C3CN4CCC56c7ccccc7N1C5C2C3CC46 (stereo not given) | 11 min
11 | COC(=O)N1c2ccccc2C23CCN4C(=O)C=CC45CCC12C(C5)C(=O)O3 (stereo not given) | 24.1 min
12 | CCC1CN2CCc3c([nH]c4ccccc34)C2CC1CC=O (stereo not given) | 14.4 min
13 | CC=C1CN(C)C2Cc3c([nH]c4ccccc34)C(c3ccc4c(CCN)c[nH]c4c3)CC1C2C(=O)OC (stereo not given) | 12.6 min
14 | C=CC1CN2CCC3(C(=O)Nc4c3ccc(O)c4C3CCCN3C)C2CC1CC1c2[nH]c3ccccc3c2CCN1C (stereo not given) | 8.71 min
15 | CC=C1C2CC[N+]3([O-])CCC4(C(=C2C(=O)OC)Nc2ccccc24)C13 (stereo not given) | 15.3 min
16 | CC=C1CN2CCc3c([nH]c4ccccc34)C2CC1C(C=O)C(=O)OC (stereo not given) | 18.3 min
17 | COC(=O)C1=COC(C)C2Cn3ccc4c5ccccc5nc-4c3CC12 (stereo not given) | 13.2 min
18 | O=C1CC(O)C2C3CC4N(CCC45c4ccccc4N1C25)CC3=CCO (stereo not given) | 10.1 min
19 | CC=C1CN(C)CC2Cc3c([nH]c4ccccc34)C(=O)CC12 (stereo not given) | 14.3 min
20 | CCC1C2CCN3CCC4(C(=C2C(=O)OC)Nc2ccccc24)C13 (stereo not given) | 13.7 min
21 | CC=C1CN2C3CC1C(C=O)C2Cc1c3[nH]c2ccccc12 (stereo not given) | 14.7 min
22 | CC=C(C=O)C1CC2c3c(c4ccccc4n3C(O)C1)CCN2C (stereo not given) | 16.1 min

Row | SMILES | LC retention time
23 | CCC1NC2CC3(C(=O)N(OC)c4cc(OC)ccc43)C3CC1C2CO3 (stereo not given) | 16.3 min
24 | C=CC1C(OC2OC(CO)C(O)C(O)C2O)OC=C(C(=O)OC)C1CC1NCCc2c1[nH]c1ccccc21 (stereo not given) | 17 min
25 | COC(=O)C1CC23CCC[N+]4([O-])CCC5(c6ccccc6N(C(=O)OC)C15CC2)C34 (stereo not given) | 17.2 min
26 | C=CC12CN(C)C3C4COC(CC41)C1(C(=O)Nc4ccccc41)C32 (stereo not given) | 9.75 min
27 | CC=C1C[N+]2(C)CCc3c([nH]c4ccccc34)C2CC1Cc1nccc2c1[nH]c1ccccc12 (stereo not given) | 15.5 min
28 | CCC1CC2CN3CCc4c([nH]c5ccccc45)C(C(=O)OC)(C2)C13 (stereo not given) | 16.9 min
29 | CC=C1C[N+]2(C)CCc3c4n(c5ccccc35)C(CO)C1CC42 (stereo not given) | 14.8 min
30 | CC=C1CN2C3CC45c6ccccc6NC4(O3)C2CC1C5(COC(C)=O)C(=O)OC (stereo not given) | 17.3 min
31 | CC=C1CN2CCc3c([nH]c4ccc(O)cc34)C2CC1CCO (stereo not given) | 11.7 min
32 | CC=C1CN2C3CC1C(C1OCC4C5CC6N(CCC67c6ccccc6N1C47)CC5CC)C2Cc1c3[nH]c2ccccc12 (stereo not given) | 13.8 min
33 | CCC1(O)CC2CN(CCc3c([nH]c4ccccc34)C(C(=O)OC)(c3cc4c(cc3OC)N(C)C3C(O)(C(=O)OC)C(OC(C)=O)C5(CC)C=CCN6CCC43C65)C2)C1 (stereo not given) | 18.6 min
34 | CCC1CN2CCc3c([nH]c4ccccc34)C2CC1C(=COC)C(=O)OC (stereo not given) | 16.8 min
35 | CC=C1CN(C)CCC23C(=O)CC1C1COC(O)C(=O)N(c4ccccc42)C13 (stereo not given) | 12.1 min
36 | CCC12CC(C(=O)OC)=C3Nc4ccccc4C34CCN(C(c3ccc5c(c3)C3CCN6CC7OC7C7(CC)CCC3(N5)C67)C3OC31)C42 (stereo not given) | 16 min
37 | CC=C1C[n+]2ccc3c([nH]c4ccccc43)c2CC1CCO (stereo not given) | 16.7 min
38 | CC=C1CN2CCC34c5ccccc5N5C(=O)C(C6CC78c9ccccc9N9C(=O)C=CC(C%10CC7N6CC%10=CC)C98)=CC(C1CC23)C54 (stereo not given) | 15.3 min
39 | C=CC1CN2CCc3c([nH]c4ccccc34)C2CC1CC1c2[nH]c3ccccc3c2CCN1C (stereo not given) | 14.8 min
40 | CC=C1CN2C(C3=CC4C5CC6N(CCC67c6ccccc6N(C3=O)C47)CC5=CC)CC34c5ccccc5N5C(=O)CC=C(C1CC23)C54 (stereo not given) | 16 min
41 | CC=C1CN2CCC34CN5c6c(cccc6C36C2CC1C(C(=O)OC)N6c1ccccc14)C12CCN3CCCC4(CCC51C4C)C32 (stereo not given) | 15 min
42 | C=CC12C=CCN3CCC4(c5ccccc5NC(=O)C4C1)C32 (stereo not given) | 11.7 min
43 | COC(=O)N1c2ccc(OC)cc2C23CCN4C(=O)C=CC45CCC12C3C5 (stereo not given) | 28.1 min
44 | C=CC(CO)C1CCN2CCc3c([nH]c4ccccc34)C2C1 (stereo not given) | 18.5 min

Row | SMILES | LC retention time
45 | COC(=O)C1CC23C=CCN4CCC5(c6ccccc6NC15C2C)C43 (stereo not given) | 13.5 min
46 | CC1OC=C2C(=O)N3CCc4c([nH]c5ccccc45)C3CC2C1C=O (stereo not given) | 27.3 min
47 | CCC12CCCN3C(=O)C=C(c4ccccc4NC(=O)CC1)C32O (stereo not given) | 18.1 min
48 | CC=C1CN2C3CC1C(CO)(C(=O)OC)C2Cc1c3n(C)c2ccccc12 (stereo not given) | 14.2 min
49 | CCC1=C(CC(=O)OC)C(O)(c2nccc3c2[nH]c2ccccc23)OC1=O (stereo not given) | 23.2 min
50 | CN1CCC23C(=O)CC4C(=CCOC5CC(=O)N(c6ccccc62)C3C54)C1 (stereo not given) | 13.6 min
51 | COC(=O)C1C(O)CCC2CN3CCc4c([nH]c5cc(OC)ccc45)C3CC21 (stereo not given) | 14.1 min
52 | COc1cc2c(cc1OC)C13CCN(C)CC45OC4COC4CC(=O)N2C1C4C5CC3=O (stereo not given) | 10.1 min
53 | CCC1CC2CN3CCc4c([nH]c5ccc(OC)cc45)C(C(=O)OC)(C2)C13 (stereo not given) | 16.8 min
54 | CCC1CC2CC3c4[nH]c5ccc(OC)cc5c4CCN(C2)C13 (stereo not given) | 13.6 min
55 | CC=C1CN(C)C2Cc3c([nH]c4ccccc34)C(c3ccc4c5c([nH]c4c3)C3CC4CC(CC)C3N(CC5)C4)CC1C2C(=O)OC (stereo not given) | 15.3 min
56 | CC1OCC2C3CC(=O)C4(CCN(C)CC13)c1ccccc1NC24 (stereo not given) | 15.9 min
57 | CCC1CC2CN3CCc4c([nH]c5cc(OC)c(OC)cc45)C(C(=O)OC)(C2)C13 (stereo not given) | 16.3 min
58 | CC=C1CN2CCC3(O)c4ccccc4N4C=C(C(=O)OC)C1CC2C43O (stereo not given) | 16.5 min
59 | COc1cc2c(cc1OC)C13CCN(C)CC4=CCOC5CC(=O)N2C1C5C4CC3=O (stereo not given) | 13.1 min
60 | CCC1CC2CC3c4[nH]c5ccccc5c4CCN(C2)C13 (stereo not given) | 15.3 min
61 | CCC12CC34CC(C(=O)OC)=C5Nc6ccccc6C56CCN3C1C1CC3(CC)C5OC5CN5CCC7(c8ccccc8N(C64)C17O2)C53 (stereo not given) | 25.8 min
62 | CC=C1CN2CCC34Cc5cc6c7c([nH]c6cc5OC35C2CC1C(C(=O)OC)N5c1ccccc14)CCC1(CC)CCCN(CC7)C1 (stereo not given) | 14.7 min
63 | COC(=O)C1CC23CCCN4CCC5(c6ccccc6N(C(=O)OC)C15CC2)C43 (stereo not given) | 26.9 min
64 | CC=C1CN2CCc3c4n(c5ccccc35)C(C(=O)OC)C1CC42 (stereo not given) | 17.5 min
65 | CC=C1CN(C)C2Cc3c(n(C)c4ccccc34)C(=O)CC1C2C(=O)OC (stereo not given) | 16.3 min
66 | CCC1CN(C)C2Cc3c([nH]c4ccccc34)C(c3c(OC)ccc4c5c([nH]c34)C3([C-]=[O+]OC)CC4CC(CC)C3N(CC5)C4O)CC1C2C(=O)OC (stereo not given) | 15.1 min

Row | SMILES | LC retention time
67 | CCC1CN2CCc3c([nH]c4ccccc34)C2CC1Cc1nccc2c1[nH]c1ccccc12 (stereo not given) | 14.5 min
68 | CC=C1CN2C(C3C(=O)N4c5ccccc5C56CCN7CC8=CCOC3C(C8CC75)C46)CC34c5ccccc5N5C(=O)C=CC(C1CC23)C54 (stereo not given) | 16.3 min
69 | C=CC1CN2CCC1CC2c1[nH]c2ccccc2c1CCO (stereo not given) | 16.7 min
70 | CCC1=CN2CCC3=c4ccccc4=NC3=C2C=C1 | 14.4 min
71 | CC=C1C[N+]2([O-])CCC34Cc5cc6c(cc5OC35C2CC1C(C(=O)OC)N5c1ccccc14)NC12CCC3(CC)CCC[N+]1(CCC62O)C3 (stereo not given) | 13.4 min
72 | CC=C1CN2C3CC1C(CO)(C(=O)OC)C2Cc1c3[nH]c2ccccc12 (stereo not given) | 12.9 min
73 | C=CC1C(OC2OC(CO)C(O)C(O)C2O)OC2OC3CNC4CC1C2(C(=O)OC)C41Nc2ccccc2C31 (stereo not given) | 10.3 min
74 | C=CC1CN2CCc3c([nH]c4ccccc34)C2CC1C(=COC)C(=O)OC (stereo not given) | 16.7 min
75 | CC=C1CN2CCc3c([nH]c4ccccc34)C2CC1Cc1nccc2c1[nH]c1ccc(O)cc12 (stereo not given) | 16.6 min
76 | CC=C1CN(C)CC2(C(=O)OC)Cc3c([nH]c4ccccc34)C(=O)CC12 (stereo not given) | 14.3 min
77 | COC(=O)C1C2CC3c4[nH]c5cc(OC)ccc5c4CCN3CC2CC(OC(=O)c2cc(OC)c(OC)c(OC)c2)C1OC (stereo not given) | 21.9 min
78 | CCC1(O)C(=O)OCc2c1cc1n(c2=O)Cc2cc3ccccc3nc2-1 (stereo not given) | 27.2 min
79 | C=CC1CN2CCc3c([nH]c4ccccc34)C2CC1CCO (stereo not given) | 13.7 min
80 | COC(=O)C1=C2Nc3ccccc3C23CCN2CC4(CC5CC67CCOC6CCN6CCC8(c9cccc(OC)c9N(C4)C58O)C67)C4OCCC4(C1)C23 (stereo not given) | 23.3 min
81 | CC=C1CN2C(C3C(=O)N4c5ccccc5C56CCN7CC8=CCOC3C(C8CC75)C46)CC34c5ccccc5N5C(=O)CC=C(C1CC23)C54 (stereo not given) | 15.6 min
82 | C=C1C2CC(=O)c3[nH]c4ccccc4c3C1N(C)CC2=CC (stereo not given) | 14.2 min
83 | CCC1=C(CC(=O)OC)C(OC)(c2nccc3c2[nH]c2ccccc23)OC1=O (stereo not given) | 27 min
84 | C=CC1CN2CCC3(C(=O)Nc4cc(O)ccc43)C2CC1CC1c2[nH]c3ccccc3c2CCN1C (stereo not given) | 11.9 min
85 | CC=C1CN2C3CC1C1(C(=O)OC)C2CC2(c4ccccc4N(C)C32)C1OC(=O)C=Cc1cc(OC)c(OC)c(OC)c1 (stereo not given) | 17.8 min
